In brackets after ≈: the same amount, converted by molar mass.

For assay [1], the target named is T1, pMON8186 encoded petunia EPSP synthase variant (glycine (101) to alanine and glycine (144) to aspartic acid) (Petunia hybrida, UniProt P11043, G173A/G216D).
T1 construct: GGT codon for glycine (144) in the mature petunia EPSP synthase; made in house; host or cells: E. coli SR481
Nature of the assay: EPSP synthase kinetic constants (appKi glyphosate, appKm PEP). The assay is classed as biochemical. The method, then: The balance of the #215 preculture (~750 μl) was used to inoculate 2 ml of MOPS medium containing 50 μg/ml carbenicillin and was shaken overnight at 37° C. to reach saturation. Plasmid DNA was isolated from an aliquot of the saturated culture using an alkaline lysis procedure. The plasmid was designated pMON8186. An aliquot of the pMON8186 plasmid was used to transform the E. coli host SR481 (described above) and reselected on MOPS medium containing 10 mM glyphosate and 50 μg/ml carbenicillin. A single glyphosate resistant colony of pMON8186 was picked off the selection plate and used to inoculate 3 ml of 2XYT bacterial medium containing 50 μg/ml carbenicillin. The culture was then aerated on rotating wheel at 37° C. until saturated, then it was used to inoculate a larger 500 ml culture. The large culture was grown to saturation by shaking it overnight at 37° C. in a water bath. The bacterial cells were lysed and the extracts were assayed for EPSPS activity.
Specifically, the bacterial cell paste was washed twice with 0.9% saline, suspended in buffer (100 mM Tris-HCl, 5 mM benzamidine HCl) and passed twice through the French Pressure Cell at 1000 psi. The cell extract was separated from the cells by centrifuging at 15,000 x gravity for 10 mins. at 5° C. It was desalted using Sephadex G-50 (Pharmacia, Piscataway, N.J.). The desalted extract was assayed for EPSP synthase activity as follows:
To an assay mix (40 μl) containing shikimate-3-phosphate (2 mM), ^14 C-phosphoenolpyruvate (1 mM, 1.2 mCi/mmol), ammonium molybdate (0.1 mM), potassium fluoride (5 mM) in 50 mM HEPES-KOH, pH 7, was added the extract and incubated at 25° C. for 2 mins. The reaction was quenched by the addition of 50 μl of 50 μl of 90% ethanol/0.1M acetic acid, pH 4.5. […] The radioactivity of the eluent was monitored using a Radiomatic Flo-One Beta Instrument. […] The EPSP synthase activity was determined by measurement of the conversion of ^14 C-PEP to ^14 C-EPSP synthase, both of which are resolved under the above conditions of chromatography. The protein content of the extract was determined by the method of Bradford (Biorad Labs, Calif.). The specific activity of the extract is expressed as nanomoles of EPSP synthase formed/min/mg protein.
Kinetic constants (appKm PEP and appKi glyphosate) were determined for EPSP synthase as described below. Substrate kinetic parameters were determined at pH 7.0 in 50 mM HEPES (N-[2-hydroxyethyl]piperazine-N'-[2-ethanesulfonic acid]) buffer in the presence of 2 mM S3P and varying amounts of ^14 C-PEP (10 μM-400 μM), for 2.0 minutes at 25° C. Reactions were quenched with 100 mM Na Acetate in ethanol, pH 4.5, centrifuged and analyzed for product EPSP formation by HPLC with flow radioactivity detection. […]

The subject of assay [2] is tobacco plants transformed with glyphosate-tolerant petunia EPSP synthase gene (pMON567). Nature of the assay: Relative effect of glyphosate spraying on transformed tobacco. It is filed as in vivo, Nicotiana tobacam CV H425. On the set-up: key: 0 = total kill, 10 = normal unsprayed plant. The following applies: GT, 0 total kill, 10 no effect, best transformant. The method, then: Plasmid pMON530 DNA was digested with BglII and ClaI, to which was added the 330 bp BglII-EcoRI EPSP synthase 5' fragment from pMON536 and purified 1.4 kb EcoRI-ClaI EPSP synthase 3' fragment from pMON9566 and then treated with T4 DNA ligase. Following transformation a plasmid was isolated that carried the intact glycine (101) to alanine variant EPSP synthase coding sequence of petunia (with the coding sequence for the chloroplast transmit peptide) adjacent to the CaMV35S promoter. This plasmid was designated pMON567. Plasmid pMON567 was inserted into A. tumefaciens cells that contained helper plasmid pGV3111-SE.
A culture of A. tumefaciens cells containing pMON567/pGV3111-SE was contacted with leaf disks taken from tobacco plants (Nicotiana tobacam CV H425) as described by Horsch (1985). The Agrobacterium cells inserted the variant EPSP synthase gene into the chromosomes of the plant cells. Plant cells resistant to kanamycin were selected and regenerated into differentiated plants by the procedure of Horsch (1985).
Progeny of these plants were propagated and grown to a rosette diameter of about 10 cm corresponding to a plant age of about four weeks. The plants were sprayed with glyphosate at levels corresponding to 0.4, 2.0 and 3.6 pounds acid equiv./acre. The effect of glyphosate on the transformed plants were scored at 7, 14 and 28 days. The effect was translated to a numerical scale of 0-10 in which 0 represents total kill and 10 is the normal, unsprayed plant. […] The values represent the best transformant for both wild-type EPSP synthase and glyphosate-tolerant EPSP synthase genes.

The test system of the next assay is E. coli strain JM101. Nature of the assay: Growth on minimal medium plates with increasing glyphosate. The assay is classed as cell-based. The following applies: Escherichia coli, read-out: glyphosate concentration that inhibits endogenous EPSP synthase activity and growth on minimal media. The text has this:
A multi-step screening procedure was used to identify glyphosate resistant variants of petunia EPSPS.

T1 sequence (P11043 73-516 G173A/G216D): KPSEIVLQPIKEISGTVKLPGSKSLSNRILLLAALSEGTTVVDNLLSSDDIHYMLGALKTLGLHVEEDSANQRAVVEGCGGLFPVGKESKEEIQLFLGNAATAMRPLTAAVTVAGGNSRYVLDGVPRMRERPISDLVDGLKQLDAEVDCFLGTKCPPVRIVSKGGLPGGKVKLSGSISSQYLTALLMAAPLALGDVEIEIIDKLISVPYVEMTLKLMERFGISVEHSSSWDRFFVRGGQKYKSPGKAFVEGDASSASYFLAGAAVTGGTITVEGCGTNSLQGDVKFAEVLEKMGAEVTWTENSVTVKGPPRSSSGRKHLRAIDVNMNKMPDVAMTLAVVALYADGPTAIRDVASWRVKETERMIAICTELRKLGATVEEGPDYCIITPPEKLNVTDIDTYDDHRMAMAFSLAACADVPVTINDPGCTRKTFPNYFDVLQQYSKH

In the case of `O=C(O)CNCP(=O)(O)O` [glyphosate, N-phosphonomethylglycine], in assay [1], the Ki for glyphosate came to 348 µM. The Ki/Km ratio in assay [1] (Ki glyphosate / Km PEP) came to 7.7. For the same compound, the “Relative Effect of Glyphosate” value is recorded as 8.0 in assay [2] (0.4 pounds/Acre, day 7); 8.0 in assay [2] (0.4 pounds/Acre, day 14); 9.0 in assay [2] (0.4 pounds/Acre, day 28); 8.0 in assay [2] (2.0 pounds/Acre, day 7); 8.3 in assay [2] (2.0 pounds/Acre, day 14); 7.0 in assay [2] (2.0 pounds/Acre, day 28). Further, the “Relative Effect of Glyphosate” value in assay [2] (3.6 pounds/Acre, day 7) is 5.0; in assay [2] (3.6 pounds/Acre, day 14) it was 7.4; in assay [2] (3.6 pounds/Acre, day 28), 7.0. The MIC in the assay on E. coli strain JM101 is 2000 µM (≈ 338 µg/mL).

Source of the values: patent US5310667A (priority 1989, dated 1994).
